Test [1] has as its target T1, angiotensin II (A-II) receptor (Bos taurus, UniProt P25104).
T1 construct: An A-II receptor membrane fraction was prepared from bovine adrenal cortex; from tissue; host or cells: bovine adrenal cortex membrane fraction
T1 sequence (P25104 1-359): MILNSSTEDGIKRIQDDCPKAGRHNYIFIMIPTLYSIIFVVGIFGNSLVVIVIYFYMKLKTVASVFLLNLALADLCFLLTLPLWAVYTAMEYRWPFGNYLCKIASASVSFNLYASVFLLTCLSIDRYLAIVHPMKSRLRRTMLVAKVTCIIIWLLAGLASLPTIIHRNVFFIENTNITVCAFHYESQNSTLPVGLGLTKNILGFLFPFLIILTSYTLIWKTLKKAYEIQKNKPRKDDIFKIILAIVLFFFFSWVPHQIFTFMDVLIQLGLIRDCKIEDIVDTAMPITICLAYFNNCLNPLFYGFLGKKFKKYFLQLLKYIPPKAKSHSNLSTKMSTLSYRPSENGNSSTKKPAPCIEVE
Put plainly: Inhibitory Effect of Binding of Angiotensin-II to Angiotensin Receptor (radioreceptor assay, 125I-AII, adrenal cortex membrane fraction). To be noted: bovine adrenal cortex membrane, room temperature, one hour. How it is done: Inhibitory Effect of Binding of Angiotensin-II to Angiotensin Receptor
An A-II receptor membrane fraction was prepared from bovine adrenal cortex.

For test [2], the system named is A-II-induced pressor action. Put plainly: Inhibitory Effect of the Compound of the Present Invention on Pressor Action of AII (p.o.). The settings on record: rat, AII 100 ng/kg i.v.; for inhibition in vivo at 1 mg/kg / inhibition in vivo at 3 mg/kg: po, read-out: Pressor Response to A II (p.o.), percent inhibition class; for inhibition in vivo at 3 mg/kg: 3 mg/kg p.o. Format: in vivo, rat (Jcl: SD). The source says:
Inhibitory Effect of the Compound of the Present Invention on Pressor Action of AII
Jcl: SD rat (9 week old, male) were employed. On the day prior to the experiment, these animals were applied with cannulation into the femoral artery and vein under anesthesia with pentobarbital Na. These animals were fasted but allowed to free access to drinking water until the experiment was started. Just on the day of conducting the experiment, the artery cannula was connected with a blood-pressure transducer, and the average blood pressure was recorded by means of polygraph. Before administration of the drug, the pressor action due to intravenous administration of AII (100 ng/kg) as the control was determined. The drugs were orally administered, then, at each point of the determination, A-II was administered intravenously, and the pressor action was similarly determined. By comparing the pressor action before and after administration of the drug, the percent inhibition by the drug on A-II-induced pressor action was evaluated.

The conditions of test [3]: reported in literature; cited from earlier work.

The inhibition is how much of the control response was suppressed. Read a high inhibition as a response far below the control. Compound `CCOc1nc2cccc(C(=O)O)c2n1Cc1ccc(-c2ccccc2-c2nc(=O)o[nH]2)cc1` [Example 1, 2-Ethoxy-1-[[2'-(2,5-dihydro-5-oxo-1,2,4-oxadiazol-3-yl)biphenyl-4-yl]methyl]benzimidazole-7-carboxylic Acid] yielded an inhibition at 1 µM in test [1] (10^-6 M) of 79%. This compound also showed an inhibition at 0.1 µM in test [1] (10^-7 M) of 34%. In addition, the inhibition in vivo at 1 mg/kg in test [2] (1 mg/kg p.o.) is above 70%. Also, in test [2], the inhibition in vivo at 3 mg/kg is above 70%.
The compound `CCOc1nc2cccc(C(=O)OC)c2n1Cc1ccc(-c2ccccc2C2=NOS(=O)N2)cc1` (centres unmarked) [Example 3, Methyl 2-ethoxy-1-[[2'-(2-oxo-3H-1,2,3,5-oxathiadiazol-4-yl)biphenyl]methyl]benzimidazole-7-carboxylate] displayed an inhibition at 1 µM in test [1] (10^-6 M) of 75%. The compound also gave an inhibition at 0.1 µM in test [1] (10^-7 M) of 33%. Also, in test [2], the inhibition in vivo at 3 mg/kg was above 70%.
Compound `CCOc1nc2cccc(C(=O)OC(C)OC(=O)OC3CCCCC3)c2n1Cc1ccc(-c2ccccc2-c2nc(=O)o[nH]2)cc1` (centres unmarked) [Example 4, 1-(Cyclohexyloxycarbonyloxy)ethyl 2-ethoxy-1-[[2'-(2,5-dihydro-5-oxo-1,2,4-oxadiazol-3-yl)biphenyl-4-yl]methyl]benzimidazole-7-carboxylate] had an inhibition at 1 µM in test [1] (10^-6 M) of 44%. In test [1] (10^-7 M), this compound yielded an inhibition at 0.1 µM of 17%. Further, the inhibition in vivo at 1 mg/kg in test [2] (1 mg/kg p.o.) is above 70%.
Compound `CCSc1nc2c(C)sc(C(=O)O)c2n1Cc1ccc(-c2ccccc2-c2noc(=O)[nH]2)cc1` [Example 8, 2-Ethylthio-1-[[2'-(2,5-dihydro-5-oxo-1,2,4-oxadiazol-3-yl)biphenyl-4-yl]methyl]-4-methylthieno[3,4-d]imidazole-6-carboxylic Acid] registered an inhibition at 1 µM in test [1] (10^-6 M) of 40%. In addition, in test [1] (10^-7 M), at 0.1 µM the inhibition was 8%. In test [2] (1 mg/kg p.o.), the inhibition in vivo at 1 mg/kg is above 70%.
In test [1] (10^-6 M), `COc1nc2c(C)sc(C(=O)O)c2n1Cc1ccc(-c2ccccc2-c2nc(=O)o[nH]2)cc1` [Example 9, 2-Methoxy-1-[[2'-(2,5-dihydro-5-oxo-1,2,4-oxadiazol-3-yl)biphenyl-4-yl]methyl]-4-methylthieno[3,4-d]imidazole-6-carboxylic Acid] yielded an inhibition at 1 µM of 55%. The compound further had an inhibition at 0.1 µM in test [1] (10^-7 M) of 19%. The inhibition in vivo at 1 mg/kg in test [2] (1 mg/kg p.o.) was above 70%. In test [2], the inhibition in vivo at 3 mg/kg was above 70%.
In test [1] (10^-6 M), `CCOc1nc2c(C)sc(C(=O)O)c2n1Cc1ccc(-c2ccccc2-c2nc(=O)o[nH]2)cc1` [Example 10, 2-Ethoxy-1-[[2'-(2,5-dihydro-5-oxo-1,2,4-oxadiazol-3-yl)biphenyl-4-yl]methyl]-4-methylthieno[3,4-d]imidazole-6-carboxylic Acid] had an inhibition at 1 µM of 51%. For the same compound, the inhibition at 0.1 µM in test [1] (10^-7 M) is 17%. Moreover, the inhibition in vivo at 1 mg/kg in test [2] (1 mg/kg p.o.) was above 70%.
The compound `CCCOc1nc2c(C)sc(C(=O)O)c2n1Cc1ccc(-c2ccccc2-c2nc(=O)o[nH]2)cc1` [Example 11, 1-[2'-(2,5-Dihydro-5-oxo-1,2,4-oxadiazol-3-yl)biphenyl-4-yl]methyl-4-methyl-2-n-propoxythieno[3,4-d]imidazole-6-carboxylic Acid] registered an inhibition at 1 µM in test [1] (10^-6 M) of 41%. In addition, the inhibition in vivo at 1 mg/kg in test [2] (1 mg/kg p.o.) was above 70%.
Regarding `CCNc1nc2c(C)sc(C(=O)O)c2n1Cc1ccc(-c2ccccc2-c2nc(=O)o[nH]2)cc1` [Example 12, 2-Ethylamino-1-[[2'-(2,5-dihydro-5-oxo-1,2,4-oxadiazol-3-yl)biphenyl-4-yl]methyl]-4-methylthieno[3,4-d]imidazole-6-carboxylic Acid], in test [1] (10^-6 M), at 1 µM the inhibition was 78%. Also, the inhibition at 0.1 µM in test [1] (10^-7 M) came to 46%. Moreover, in test [2] (1 mg/kg p.o.), the inhibition in vivo at 1 mg/kg is below 50%.
The compound `CCCc1nc2cccc(C(=O)O)c2n1Cc1ccc(-c2ccccc2-c2nc(=O)o[nH]2)cc1` [Example 30, 1-[[2'-(2,5-Dihydro-5-oxo-1,2,4-oxadiazol-3-yl)biphenyl-4-yl]methyl]-2-propylbenzimidazole-7-carboxylic Acid] returned an inhibition at 1 µM in test [1] (10^-6 M) of 77%. In test [1] (10^-7 M), this compound yielded an inhibition at 0.1 µM of 35%. For the same compound, the inhibition in vivo at 1 mg/kg in test [2] (1 mg/kg p.o.) was above 70%.
For `CCc1nc2cccc(C(=O)O)c2n1Cc1ccc(-c2ccccc2-c2nc(=O)o[nH]2)cc1` [Example 31, 2-Ethyl-1-[[2'-(2,5-dihydro-5-oxo-1,2,4-oxadiazol-3-yl)-biphenyl-4-yl]methyl]benzimidazole-7-carboxylic Acid] the same measures were 79%, 41% and above 70%.
For `O=C(O)c1cccc2nc(C3CC3)n(Cc3ccc(-c4ccccc4-c4noc(=O)[nH]4)cc3)c12` [Example 32, 2-Cyclopropyl-1-[[2'-(2,5-dihydro-5-oxo-1,2,4-oxadiazol-3-yl)biphenyl-4-yl]methyl]benzimidazole-7-carboxylic acid], in that order: 75%, 27% and above 70%.
Take `COC(=O)c1cccc2nc(C3CC3)n(Cc3ccc(-c4ccccc4-c4nc(=O)o[nH]4)cc3)c12` [Example 32c, Methyl 2-cyclopropyl-1-[[2'-(2,5-dihydro-5-oxo-1,2,4-oxadiazol-3-yl)biphenyl-4-yl]methyl]-benzimidazole-7-carboxylate]: the inhibition at 1 µM in test [1] (10^-6 M) worked out at 79%. This compound also yielded an inhibition at 0.1 µM in test [1] (10^-7 M) of 40%. Moreover, the inhibition in vivo at 1 mg/kg in test [2] (1 mg/kg p.o.) was above 70%.
For `CCCCc1nc2cccc(C(=O)O)c2n1Cc1ccc(-c2ccccc2-c2noc(=O)[nH]2)cc1` [Example 33, 2-Butyl-1-[[2'-(2,5-dihydro-5-oxo-1,2,4-oxadiazol-3-yl)-biphenyl-4-yl]methyl]benzimidazole-7-carboxylic acid] the same measures were 70%, 23% and 50 to 70%.
For `COc1nc2cccc(C(=O)O)c2n1Cc1ccc(-c2ccccc2-c2noc(=O)[nH]2)cc1` [Example 35, 1-[[2'-(2,5-Dihydro-5-oxo-1,2,4-oxadiazol-3-yl)biphenyl-4-yl]methyl]-2-methoxybenzimidazole-7-carboxylic acid], in that order: 79%, 38% and above 70%.
In test [1] (10^-6 M), `CCCOc1nc2cccc(C(=O)O)c2n1Cc1ccc(-c2ccccc2-c2nc(=O)o[nH]2)cc1` [Example 36, 1-[[2'-(2,5-Dihydro-5-oxo-1,2,4-oxadiazol-3-yl)biphenyl-4-yl]methyl]-2-propoxybenzimidazole-7-carboxylic acid] had an inhibition at 1 µM of 60%. The compound further displayed an inhibition at 0.1 µM in test [1] (10^-7 M) of 18%. The inhibition in vivo at 1 mg/kg in test [2] (1 mg/kg p.o.) is above 70%.
Compound `CCc1nc2c(C)cc(C(=O)O)nc2n1Cc1ccc(-c2ccccc2-c2nc(=O)o[nH]2)cc1` [Example 56, 2-Ethyl-3-[[2'-(2,5-dihydro-5-oxo-1,2,4-oxadiazol-3-yl)biphenyl-4-yl]methyl]-7-methylimidazo[4,5-b]pyridine-5-carboxylic acid] registered an inhibition at 1 µM in test [1] (10^-6 M) of 94%. The compound also had an inhibition at 0.1 µM in test [1] (10^-7 M) of 80%. Also, the inhibition in vivo at 1 mg/kg in test [2] (1 mg/kg p.o.) was above 70%.
For `CCOc1nc2cccc(C(=O)OC)c2n1Cc1ccc(-c2ccccc2-c2nc(=O)s[nH]2)cc1` [Example 60, Methyl 2-ethoxy-1-[[2'-(2,5-dihydro-5-oxo-1,2,4-thiadiazol-3-yl)biphenyl-4-yl]methyl]benzimidazole-7-carboxylate] the same measures were 84%, 43% and above 70%.
Regarding `CNCC(=O)N[C@@H](CCCN=C(N)N)C(=O)N[C@H](C(=O)N[C@@H](Cc1ccc(O)cc1)C(=O)N[C@H](C(=O)N[C@@H](Cc1cnc[nH]1)C(=O)N1CCC[C@H]1C(=O)N[C@@H](C)C(=O)O)C(C)C)C(C)C` [saralasin], in test [3], the “angiotensin II antagonist activity” value is “potent”.
On to “Acetoxymethyl 1-[[2'-(4-acetoxymethyl-4,5-dihdyro-5-oxo-4H-1,2,4-oxadiazol-3-yl)biphenyl-4-yl]methyl]-2-ethoxybenzimidazole-7-carboxylate [Example 13]”, for which the “Radioreceptor assay % inhibition” value in test [1] (10^-6 M) amounted to 69%; in test [1] (10^-7 M), 31%. In test [2] (1 mg/kg p.o.), the “Pressor Response to A II (p.o.), percent inhibition class” value is “+++ (+++ ≥ 70%)”.

(Values after patent US5736555A, “Heterocyclic compounds and their use as angiotensin antagonists” (Takeda Chemical Industries, Ltd., priority 1991, dated 1998).)
